Test results from patent publication US8097620B2, “Diazaquinolones that inhibit prolyl hydroxylase activity” (Amgen Inc., priority 2007, dated 2012).

Biological target: HIF PHD2 (Homo sapiens, UniProt Q9GZT9)
Assay: PHD2 inhibition assay (TR-FRET, VCB-Eu detection of hydroxylated P564-HIF1α peptide)
Type: biochemical
Conditions: 2 nM PHD2, 100 nM P564-HIF1α peptide, 0.25 μM 2-oxoglutarate, 100 μM FeCl2, 2 mM ascorbic acid, pH 6
Experimental: Inhibition of HIF PHD2 activity was quantified utilizing the TR-FRET technology. HIF PHD2 catalyzes a hydroxyl modification on the proline residue of the P564-HIF1α peptide substrate (Biotin-[…] (SEQ ID NO: 7)) resulting in recognition and binding of the europylated Von Hippel-Lindau protein (pVHL), elongin B and elongin C heterotrimeric (VCB-Eu) complex.
The PHD2 inhibition assay was executed by addition of freshly dissolved FeCl2 to 178.57 μM (100 μM final concentration) in PHD2 Reaction Buffer containing 30 mM MES, pH 6, 10 mM NaCl, 0.25% Brij-35, 0.01% BSA, and 1% DMSO. 28 μL of the iron solution and 2 μL of inhibitor compounds serially diluted in 100% DMSO (5% DMSO final) were added to black polypropylene 96-well microtiter plates. To that, 10 μL of 10 nM PHD2 (2 nM final) was added to all wells of the plate except for the 8 wells of column 12 (LO control), and allowed to incubate at room temperature on the shaker for one hour. Column 6 was the HI control containing PHD2 enzyme and 5% DMSO vehicle, but no inhibitor compound. To initiate the PHD2 enzymatic reaction, 10 μL of a solution containing 500 nM P564-HIF1α peptide (100 nM final), 10 mM ascorbic acid (2 mM final), and 1.25 μM 2-oxoglutarate (α-ketoglutarate; 0.25 μM final) in PHD2 Reaction Buffer was added to all wells of the plate and allowed to incubate on the shaker at room temperature for one hour.
The reaction was terminated by addition of 25 μL TR-FRET Buffer (50 mM TRIS-HCl, pH 9, 100 mM NaCl, 0.05% BSA, and 0.5% Tween-20) containing 150 mM succinate (product inhibitor; 50 mM final), 75 nM streptavidin-APC (25 nM final), and 7.5 nM VCB-Eu (2.5 nM final). The TR-FRET detection reagents were placed on a shaker for 1 hour to reach binding equilibrium before reading on the Discovery platform (PerkinElmer). Europium is excited at 315 nm and phosphoresces at 615 nm with a large Stoke's shift. APC, in turn, emits at 655 nm upon excitation at 615 nm. The TR-FRET signal is measured as the ratio of the APC 655 nm signal divided by the internal europium reference 615 nm emission signal.
The POC (percentage of control) was determined by comparing the signal from hydroxylated peptide substrate in the enzyme reaction containing inhibitor compound with that from PHD2 enzyme with DMSO vehicle alone (HI control), and no enzyme (LO control). POC was calculated using the formula: % control (POC)=(cpd−average LO)/(average HI−average LO)*100. Data (consisting of POC and inhibitor concentration in μM) was fitted to a 4-parameter equation (y=A+((B−A)/(1+((x/C)^D))), where A is the minimum y (POC) value, B is the maximum y (POC), C is the x (cpd concentration) at the point of inflection and D is the slope factor) using a Levenburg-Marquardt non-linear regression algorithm.

HIF PHD2, sequence (Q9GZT9 whole entry): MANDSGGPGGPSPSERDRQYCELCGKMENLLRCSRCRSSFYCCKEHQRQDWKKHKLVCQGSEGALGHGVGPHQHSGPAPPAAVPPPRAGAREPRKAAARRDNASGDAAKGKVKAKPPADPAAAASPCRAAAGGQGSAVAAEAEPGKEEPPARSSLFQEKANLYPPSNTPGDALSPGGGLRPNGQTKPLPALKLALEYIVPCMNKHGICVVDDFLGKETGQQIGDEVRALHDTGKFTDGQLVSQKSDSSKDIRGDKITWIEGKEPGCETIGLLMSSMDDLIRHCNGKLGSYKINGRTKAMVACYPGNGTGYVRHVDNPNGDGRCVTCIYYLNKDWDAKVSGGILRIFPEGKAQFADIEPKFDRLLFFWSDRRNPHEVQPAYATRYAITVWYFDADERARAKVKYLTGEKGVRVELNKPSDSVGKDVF

SMILES: Cc1ccc(S(=O)(=O)n2cc(-c3ncc4c(O)c(C(=O)NCC(=O)O)c(=O)n(C)c4n3)c3ccccc32)cc1 [Example 58, 2-(5-hydroxy-8-methyl-7-oxo-2-(1-tosyl-1H-indol-3-yl)-7,8-dihydropyrido[2,3-d]pyrimidine-6-carboxamido)acetic acid]
- IC50: 42 nM
